Source: patent US20060121449A1, “Method for selection of compounds which inhibit clonal cell growth and use thereof” (priority 2002, published 2006)

Experiments:
HSV2 = HSV2 replication and cytopathogenicity in RK13 cells (Exp 12); format: cell-based, Herpes virus 2; details: for Coverage of the bottom read after 24 hours: 1 g = 100% coverage of the bottom; for Cytopathogenicity read after 24 hours: 1d is 100% degeneration
Method: RK13 cells and HSV2 v12225 was obtained from Dr. G. Hoddevik, National Institute of Public Health, Oslo, Virus had been stored at −75° C. It was propagated on RK13 cells.
Then the medium, Eagles MEM with 5% FCS, was removed and replaced by new medium.
The inoculated virus was removed by changing the medium the day before titration. […] 1, esperiment 12.

HSV1 = HSV1 replication and cytopathogenicity in RK13 cells (Exp 11a, 11b); format: cell-based, Herpes virus type 1; details: for Cytopathogenicity read after 24 hours: 4d = 100% degenerated; for Cell layer read after 24 hours: 4 g = unaffected and covering bottom of the well; for Coverage of the bottom read after 2 days / Cytopathogenicity read after 2 days: 11b, HSV 2 μl/well; for Coverage of the bottom read after 2 days: 1 g = 100% coverage of the bottom; for Cytopathogenicity read after 2 days: 1d is 100% degeneration
[1] = system: spleen antibody producing cells against sheep red cells; assay: Jerne's test: haemolytic plaques of spleen cells after immunisation with sheep red cells (Exp 10); format: in vivo, mouse; details: Exp 10 animal 2, low: 2 μl 20 mM s.c. (est. max extracellular 4.6 μM)
[2] = system: spleen antibody producing cells against sheep red cells; assay: as above; format: in vivo, mouse; details: for Change of number of plaques (antibody producing cells), average and high doses: 8.4 μl 20 mM and 3.5 μl 200 mM s.c.; for Condition of the animals on injection days (day 0 to day 62): all animals, s.c. 2 μl 20 mM to 3.5 μl 200 mM, day = column head; for Plaque no. in 10 mill. cells: control 4689
Method: The same principle could be tested in animals using the classical Jerne's test. Shortly described: Mice were immunised with sheep red cells. At the same time subcutaneous injection with a clone inhibitor, e.g. 4-OH-OPB, was performed. After 5 days the spleen was squeezed and spleen-cells counted and mixed with agar medium, sheep red cells and complement. After a short time plaques appeared and were counted and percent of total number of spleen cells was calculated. […] Therefore, it is probable that it is only the reaction against the new immunogen that is affected. […] Only cells of the same specificity seemed to be the <> of clonal inhibition even if lots of other B-lymphocytes are present, but with other specificities. The only condition necessary seemed to be that affected cells should be located more than a certain distance from each other.
In order to examine the degree of diminishing cloning in the immune system, Jerne's test in mice may be suitable (Experiment 10). Sheep erythrocytes are injected into mice. A few days later cells from the spleen of the animals are studied. In experiment 10 the smallest dose was about 3.8 μM if 4-OH-OPB was solved in the extracellular fluid of the mouse. […] But there are indications that normal cells might tolerate higher doses than malignant cells. Therefore, it is thought that effective tumour inhibiting doses of 4-OH-OPB probably will affect the clonability of antibody producing cells in the spleen under or shortly after primary immunisation moderately, about 2 logs.
The test animals were 4 mice, white Bom/NMRI (Table 5). The drug that was tested in this experiment is 4-OH-OPB (Table 1-4). It is inhibiting Ehrlich ascites when injected together with the cells in peritoneum in a concentration of 4 μM or higher and clonal growth of BHK21/c13 and its polyoma virus transformed offspring, S100T1, in cell culture.
A section was performed; they were weighed and a search for tumour masses was undertaken without finding any. The spleens were removed and about half of it crushed in 0.5 ml Eagles for getting extracted, free spleen cells that were seeded in soft agar on top of a solid agar layer in a Petri dish of 8.5 cm in diameter. The agar layer with spleen cells also contained sheep red cells and complement was added to obtain hemolysis.
Animals were killed by cervical dislocation on day 62 and spleens were immediately put on cold Eagle's medium for transportation. It lasted about 5 hours before the agar dishes were ready for incubation in 5% CO2 and 37° C. However, the dishes from mouse #1 and #2 were too fluid in the top layers and developed two many plaques to be counted. Therefore, the next day, the second half of the two spleens from mouse #1 and #2 that were kept cold in the same medium were crushed in the same way and new dishes were prepared with less number of cells.

[3] = 11a, inoculate 1 μl/well, 30 μM
[4] = 11a, inoculate 4 μl/well, 30 μM
[5] = 11a, inoculate 16 μl/well, 30 μM
[6] = Exp 10 animal 2, low: 2 μl 20 mM s.c.
[7] = Exp 10 animal 3, average: 8.4 μl 20 mM s.c.
[8] = Exp 10 animal 4, high: 3.5 μl 200 mM s.c.

## CCCCC1(O)C(=O)N(c2ccccc2)N(c2ccc(O)cc2)C1=O (stereo not drawn) [4-OH-OPB, 4-butyl-4-hydroxy-2(p-hydroxyphenyl)-1-phenyl-3,5-pyrazolidinedione]
HSV2
  Concentrations with inhibited production of HSV2: above 0.1 μM
HSV2; 2 μl/well, 0.1 μM
  Coverage of the bottom read after 24 hours: 1 g
  Cytopathogenicity read after 24 hours: 0.6 days
HSV2; 2 μl/well, 0.3 μM
  Coverage of the bottom read after 24 hours: 1 g
  Cytopathogenicity read after 24 hours: 0.7 days
HSV2; 2 μl/well, 1 μM
  Coverage of the bottom read after 24 hours: 1 g
  Cytopathogenicity read after 24 hours: 0.7 days
HSV2; 2 μl/well, 3 μM
  Coverage of the bottom read after 24 hours: 0.8 g
  Cytopathogenicity read after 24 hours: 0.95 days
HSV2; 2 μl/well, 10 μM
  Coverage of the bottom read after 24 hours: 0.9 g
  Cytopathogenicity read after 24 hours: 0.95 days
HSV2; 2 μl/well, 30 μM
  Coverage of the bottom read after 24 hours: 0.7 g
  Cytopathogenicity read after 24 hours: 0.2 days
HSV2; 8 μl/well, 0.1 μM
  Coverage of the bottom read after 24 hours: 1 g
  Cytopathogenicity read after 24 hours: 0.9 days
HSV2; 8 μl/well, 0.3 μM
  Coverage of the bottom read after 24 hours: 1 g
  Cytopathogenicity read after 24 hours: 0.9 days
HSV2; 8 μl/well, 1 μM
  Coverage of the bottom read after 24 hours: 1 g
  Cytopathogenicity read after 24 hours: 0.9 days
HSV2; 8 μl/well, 3 μM
  Coverage of the bottom read after 24 hours: 0.8 g
  Cytopathogenicity read after 24 hours: 0.95 days
HSV2; 8 μl/well, 10 μM
  Coverage of the bottom read after 24 hours: 0.86 g
  Cytopathogenicity read after 24 hours: 0.95 days
HSV2; 8 μl/well, 30 μM
  Coverage of the bottom read after 24 hours: 0.7 g
  Cytopathogenicity read after 24 hours: 0.2 days
HSV2; titration incubated for 3 days
  Inhibition of HSV2 titre at 3 μM: about 3 log
HSV1; 11a, 1 μl HSV, 0.3 μM, dilution 1/1024
  HSV titration of treated wells, read after 4 days: ((+)?
HSV1; 11a, inoculate 1 μl/well, 0.1 μM
  Cytopathogenicity read after 24 hours: 1.7 days
HSV1; 11a, inoculate 1 μl/well, 0.3 μM
  Cytopathogenicity read after 24 hours: 1.7 days
HSV1; 11a, inoculate 1 μl/well, 1 μM
  Cytopathogenicity read after 24 hours: 1.7 days
HSV1; 11a, inoculate 1 μl/well, 3 μM
  Cytopathogenicity read after 24 hours: 1.7 days
HSV1; 11a, inoculate 1 μl/well, 10 μM
  Cytopathogenicity read after 24 hours: 4 days
HSV1; [3]
  Cell layer read after 24 hours: 3 to 4 g
  Cytopathogenicity read after 24 hours: 0 days
HSV1; 11a, inoculate 4 μl/well, 0.1 μM
  Cytopathogenicity read after 24 hours: 2.6 days
HSV1; 11a, inoculate 4 μl/well, 0.3 μM
  Cytopathogenicity read after 24 hours: 2.6 days
HSV1; 11a, inoculate 4 μl/well, 1 μM
  Cytopathogenicity read after 24 hours: 2.6 days
HSV1; 11a, inoculate 4 μl/well, 3 μM
  Cytopathogenicity read after 24 hours: 2.6 days
HSV1; 11a, inoculate 4 μl/well, 10 μM
  Cytopathogenicity read after 24 hours: 4 days
HSV1; [4]
  Cell layer read after 24 hours: 3 to 4 g
  Cytopathogenicity read after 24 hours: 0 days
HSV1; 11a, inoculate 16 μl/well, 0.1 μM
  Cytopathogenicity read after 24 hours: 3.4 days
HSV1; 11a, inoculate 16 μl/well, 0.3 μM
  Cytopathogenicity read after 24 hours: 3 to 4 days
HSV1; 11a, inoculate 16 μl/well, 1 μM
  Cytopathogenicity read after 24 hours: 3.4 days
HSV1; 11a, inoculate 16 μl/well, 3 μM
  Cytopathogenicity read after 24 hours: 4 days
HSV1; 11a, inoculate 16 μl/well, 10 μM
  Cytopathogenicity read after 24 hours: 4 days
HSV1; [5]
  Cell layer read after 24 hours: 3 to 4 g
  Cytopathogenicity read after 24 hours: 0.5 days
HSV1; 0.3 μM
  Coverage of the bottom read after 2 days: 1 g
HSV1; 1 μM
  Coverage of the bottom read after 2 days: 1 g
  Cytopathogenicity read after 2 days: 0.28 days
HSV1; 3 μM
  Coverage of the bottom read after 2 days: 1 g
  Cytopathogenicity read after 2 days: 0.28 days
HSV1; 10 μM
  Cytopathogenicity read after 2 days: 1 days
HSV1; 30 μM
  Coverage of the bottom read after 2 days: 1 g
HSV1; Exp 11a, inoculate not removed before titration
  Concentration that inhibited HSV / necessary for the cure of the infection in cell culture: 10 µM
HSV1; Exp 11b
  Concentration that inhibited satisfactorily: 1000 nM
  Total titre reduction: about 3.5 log
HSV1; Exp 11b, titration read after four days
  Dose giving maximal inhibition of HSV1 titre: ≥ 1 µM
HSV1; medium changed the day after infection
  Inhibition in Exp 11b compared with Exp 11a: 10 times
[1]
  Spleen weight: 148 mg
[2]; Exp 10, 2 μl 20 mM s.c.
  Change of number of plaques, smallest dose: did not significantly change the number of plaques
[2]; Exp 10
  Change of number of plaques (antibody producing cells), average and high doses: did reduce the number significantly
  Condition of the animals on injection days (day 0 to day 62): all animals were clinically well
[2]; Exp 10, listed as 4-OH—OPB
  Change of number of plaques (antibody producing cells), average and high doses: OPB significantly reduced the number of anti-
  Condition of the animals on injection days (day 0 to day 62): all well at end
[2]; [6]
  1. number of plaques: many
  Plaque no. in 10 mill. cells: 3134
[2]; Exp 10 animal 2, low: 2 μl 20 mM s.c., 32.6 million cells on dish
  2. number of plaques: 10218
[2]; [7]
  1. number of plaques: 42
  Plaque no. in 10 mill. cells: 8.4
[2]; Exp 10 animal 3, average: 8.4 μl 20 mM s.c. (est. max extracellular 19.6 μM)
  Spleen weight: 150 mg
[2]; [8]
  1. number of plaques: 0-2?
  Plaque no. in 10 mill. cells: <=0.23
[2]; Exp 10 animal 4, high: 3.5 μl 200 mM s.c. (est. max extracellular 67.7 μM)
  Spleen weight: 136 mg
[2]; Exp 10 mouse 2 (11.3 μg 4-OH-OPB/30 g)
  Mouse weight after 2 months: 37.6 gram
[2]; Exp 10 mouse 3 (51.5 μg 4-OH-OPB/30 g)
  Mouse weight after 2 months: 33.3 gram
[2]; Exp 10 mouse 4 (210.2 μg 4-OH-OPB/30 g)
  Mouse weight after 2 months: 34 gram
